The results in this text go back to patent US6136992A, “2-alkoxy estradiols and derivatives thereof” (The United States of America as represented by the …, priority 1998, dated 2000).

Each structure is given as a SMILES string. Like-named read-outs stand apart in the source and are kept apart here.

In assay [1] the test system is OVCAR-3. Description: NCI screen, ovarian cancer. It is filed as cell-based. The following applies: Homo sapiens, read-out: Log10 GI50, OVCAR-3 (converted).
Assay [2] concerns UACC-62 melanoma cells. Description: NCI in vitro anticancer screen, UACC-62 melanoma. It counts as cell-based. The following applies: Homo sapiens. From the text: (§1) The effects of the analogs on cancer cell growth was investigated in the National Cancer Institute (NCI) Developmental Therapeutics Program's in vitro panel of approximately 55 cell lines (Grever et al., Seminars in Oncology 19:622 (1992), Alley et al., Cancer Research 48:589 (1988) and Montes et al., J. National Cancer Institute 83:757 (1991)). Representative results are listed in Table 1 for HOP-62 non-small-cell lung cancer cells, HCT-116 colon cancer cells, SF-539 central nervous system (CNS) cancer cells, UACC-62 melanoma cells, OVCAR ovarian cancer cells, SN12-C renal cancer cells, DU-145 prostate cancer cells, and MDA-MB-435 breast cancer cells.
(§2) ^a The cytotoxicity GI50 values are the concentrations

The test system of assay [3] is RPMI-8226. Description: NCI screen, leukemia. It is filed as cell-based. The following applies: Homo sapiens, read-out: Log10 GI50, RPMI-8226 (converted).
The test system of assay [4] is 786-0. Description: NCI screen, renal cancer. The following applies: Homo sapiens, read-out: Log10 GI50, 786-0 (converted). It counts as cell-based.
In assay [5] the test system is SF-539 central nervous system (CNS) cancer cells. The experiment in a line: NCI in vitro anticancer screen, SF-539 CNS cancer. The following applies: Homo sapiens. It counts as cell-based.
From the text: as §1, §2

Assay [6] has as its system HCT-116 colon cancer cells. The experiment in a line: NCI in vitro anticancer screen, HCT-116 colon cancer. It counts as cell-based. The following applies: Homo sapiens.
From the text: as §1, §2

Assay [7] deals with SW-260. The experiment in a line: NCI screen, colon cancer. The following applies: Homo sapiens, read-out: Log10 GI50, SW-260 (converted). It counts as cell-based.
Assay [8] has as its system SK-MEL-28. The experiment in a line: NCI screen, melanoma. The following applies: Homo sapiens, read-out: Log10 GI50, SK-MEL-28 (converted). It is filed as cell-based.
For assay [9], the system named is RXF 393. Description: NCI screen, renal cancer. It is filed as cell-based. The following applies: Homo sapiens, read-out: Log10 GI50, RXF 393 (converted).
Assay [10] concerns M14. The experiment in a line: NCI screen, melanoma. It counts as cell-based. The following applies: Homo sapiens, read-out: Log10 GI50, M14 (converted).
Assay [11] relates to DU-145 prostate cancer cells. Description: NCI in vitro anticancer screen, DU-145 prostate cancer. It counts as cell-based. The following applies: Homo sapiens.
From the text: as §1, §2

The target in assay [12] is T1, estrogen receptor (Rattus norvegicus, UniProt P06211).
T1 construct: from tissue; host or cells: rat uterine cytosol
T1 sequence (P06211 1-600): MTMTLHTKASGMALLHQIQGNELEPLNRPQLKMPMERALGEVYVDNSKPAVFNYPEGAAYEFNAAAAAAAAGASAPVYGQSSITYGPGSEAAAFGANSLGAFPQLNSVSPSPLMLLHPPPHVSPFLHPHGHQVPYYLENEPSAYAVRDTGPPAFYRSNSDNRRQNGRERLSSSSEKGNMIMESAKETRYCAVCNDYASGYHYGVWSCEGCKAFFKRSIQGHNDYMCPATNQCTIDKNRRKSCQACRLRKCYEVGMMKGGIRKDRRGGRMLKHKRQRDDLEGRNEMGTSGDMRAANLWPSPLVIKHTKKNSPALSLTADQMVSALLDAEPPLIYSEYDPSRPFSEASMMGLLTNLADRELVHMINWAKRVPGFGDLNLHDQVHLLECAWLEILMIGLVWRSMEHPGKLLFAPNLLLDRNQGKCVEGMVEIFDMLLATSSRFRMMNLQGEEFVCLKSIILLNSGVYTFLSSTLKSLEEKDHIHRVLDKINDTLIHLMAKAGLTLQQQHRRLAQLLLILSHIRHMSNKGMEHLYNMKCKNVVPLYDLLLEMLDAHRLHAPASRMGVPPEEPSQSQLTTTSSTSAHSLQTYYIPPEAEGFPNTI
The experiment in a line: Estrogen binding affinity assay (comparative radiometric binding, rat uterine cytosol). How it is done:
The assay of (11), (12) and (16) were conducted at 0° C. for 20 hours, while those for (1) and (2) were performed at 0° C. for 18 hours.

Assay [13] relates to tubulin. The experiment in a line: Inhibition of tubulin polymerization (turbidimetry at 350 nm). It counts as biochemical, bovine. The following applies: 26° C., 20 min; read-out: Inhibn of Tubulin Polymn IC50. As to the method:
Four instruments were used, and two control reaction mixtures were present in each experiment. […] IC50 values were determined graphically. […]
Inhibition of tubulin polymerization was investigated using electrophoretically homogeneous tubulin from bovine brain.

By GI50 is commonly meant the concentration that inhibits growth by half. One may read the IC50 as the midpoint of a concentration-inhibition curve.

On to `C[C@]12CC[C@@H]3c4cc(OCC(F)(F)F)c(O)cc4C(=NO)C[C@H]3[C@@H]1CC[C@@H]2O` [Compound 12, 2-(2',2', 2'-Trifluoroethoxy)-6-Hydroximino-Estra-1,3,5(10)-Triene-3,17β-Diol], for which the GI50 in [1] is less than 10 nM; in assay [2] (UACC-62, read-out: cytotoxicity GI50, Melanoma UACC-62) it was less than 10 nM; in assay [2] (UACC-62, Melanoma, read-out: Log10 GI50, UACC-62 (converted)), less than 10 nM; in [3], less than 10 nM; in assay [4], less than 10 nM; in assay [5] (SF-539, CNS Cancer, read-out: Log10 GI50, SF-539 (converted)), less than 10 nM. Further, the GI50 in assay [5] (read-out: cytotoxicity GI50, CNS SF-539) is less than 10 nM; in assay [6] (HCT-116, read-out: cytotoxicity GI50, Colon HCT-116), less than 10 nM; in [6] (HCT-116, Colon Cancer, read-out: Log10 GI50, HCT-116 (converted)), less than 10 nM; in [7], less than 10 nM; in [8], less than 10 nM; in assay [9] it was less than 10 nM. In addition, the GI50 in [10] was less than 10 nM; in assay [11] (DU-145, read-out: cytotoxicity GI50, Prostate DU-145), less than 10 nM; in [11] (DU-145, Prostate Cancer, read-out: Log10 GI50, DU-145 (converted)), less than 10 nM. Besides, in assay [12], the “affinity for the estrogen receptor, in words” value was “very week affinity for the receptor”. Moreover, the IC50 in [13] turned out to be 500 nM.
